Laboratory results from US7292944B2, “Establishment of biological cut-off values for predicting resistance to therapy” (priority 2000, dated 2007).

System: HIV
Assay: Antivirogram phenotypic drug susceptibility of untreated patient samples relative to laboratory wild type standard virus
Format: cell-based
Conditions: for effect of the change in cut-off value on the decision concerning resistance of the samples: new versus old cut-off value (FIG. 4, FIG. 5)
Description: In one embodiment, the biological cut-off values may be used in concert with direct phenotype assays, for example, Antivirogram™ (Virco, Inc.; WO 97/27480, U.S. Pat. No. 6,221,578 incorporated herein by reference). This assay is a phenotypic resistance assay that measures, in controlled laboratory conditions, the level of resistance of the HIV derived from an individual patient to each of the anti-HIV therapies currently available. The resistant ‘behavior’ of the virus may be the combined result of the effects of many different mutations and the complex interactions between them, including genetic changes that have not even been identified yet. In other words, it is a direct measure of resistance.
The test provides a quantitative measure of viral resistance to all the available drugs. This is expressed in terms of the IC50. This is then compared to the IC50 for fully sensitive, non-mutated ‘wild-type’ virus. The resistance of the sampled virus to each therapy is then expressed in terms of a fold-change in IC50 compared to wild type. The report enables physicians to identify the therapy(s) that are no longer active and helps in the selection of the optimal combination of drugs for the individual patient.
Drug susceptibility of approximately 1000 geographically diverse untreated patient samples was determined for all currently approved antiretrovirals using the Antivirogram™ assay. […] The fold change in sensitivity of the samples to a drug is also termed the fold resistance of the samples to the drug. The 2×SD value for each drug was used as the cut-off between sensitive (within normal susceptibile range) and resistant (above normal susceptible range). […] FIG. 1 represents an example of such an analysis for a single antiviral drug. These varied between 3-4.5 fold for the nucleosides, 6-10 fold for the NNRTIs and 2.5-4 fold for the PIs.

Cc1cn([C@H]2C=C[C@@H](CO)O2)c(=O)[nH]c1=O [d4T]
effect of the change in cut-off value on the decision concerning resistance of the samples: doubling of the number of resistant sample

CC(C)Nc1cccnc1N1CCN(C(=O)c2cc3cc(NS(C)(=O)=O)ccc3[nH]2)CC1 [delavirdine]
biological cut-off value (2×SD of fold change in sensitivity / fold resistance) (approximately 1000 untreated patient samples, new cut-off between sensitive and resistant, old cut-off was 4 fold): 10 fold | effect of the change in cut-off value on the decision concerning resistance of the samples: did not actually affect the decision of many samples
